We go through eleven compounds from PubChem BioAssay AID743490 (The Scripps Research Institute Molecular Screening Center, 2014).

Active and inactive are the calls of the source. The rule behind the calls is not given here.

The target in this experiment is Trace amine-associated receptor 1 (Homo sapiens) (UniProt Q96RJ0). Kind of experiment: TAAR1 desensitization by agonist compounds, SAR follow-up, counter-screen for TAAR1 agonist project, cell-based, fluorescence, human, MedChem round 1 (AID 743490). The following applies: hTAAR1 cells, desensitization of agonist response. Background: Counterscreens check selectivity or assay interference.
Sequence of Trace amine-associated receptor 1 (Homo sapiens) (Q96RJ0 whole entry, looked up): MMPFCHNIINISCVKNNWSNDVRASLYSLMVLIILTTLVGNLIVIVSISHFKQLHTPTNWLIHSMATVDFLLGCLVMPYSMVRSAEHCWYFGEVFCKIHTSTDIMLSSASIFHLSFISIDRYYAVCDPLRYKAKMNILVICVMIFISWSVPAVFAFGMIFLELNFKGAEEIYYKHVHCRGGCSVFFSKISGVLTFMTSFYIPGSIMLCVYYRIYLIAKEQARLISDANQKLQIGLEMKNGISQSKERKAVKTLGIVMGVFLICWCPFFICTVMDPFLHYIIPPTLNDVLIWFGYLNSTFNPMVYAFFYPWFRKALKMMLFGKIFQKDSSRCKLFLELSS
Regarding `O=C(CCN1CCC(c2ccccc2)C1)c1ccccc1` (stereo unspecified), the IC50 result was “inactive”.

On to `CC(CN1CCCC1Cc1ccccc1)C(=O)c1ccc2c(c1)OCCO2` (stereo unspecified), for which the IC50 is > 29.9 µM (inactive).

Take `CC1CN(CCC(=O)c2ccc3c(c2)OCCO3)CC1c1ccccc1` (stereo unspecified): the IC50 was 4.4 µM.

On to `O=C(CCN1CCC(O)(c2ccccc2)C1)c1ccc2c(c1)OCCO2` (stereo unspecified), for which the IC50 is > 29.9 µM (inactive).

Turning to `O=C(CCN1C[C@@H](C(=O)O)[C@H](c2ccccc2)C1)NCc1cccs1`, the IC50 was > 29.9 µM (inactive).

Take `O=C(CCN1C[C@@H](C(=O)O)[C@H](c2ccccc2)C1)NC1CCCC1`: the IC50 is > 29.9 µM (inactive).

As for `Cc1ccc(C(=O)CCN2CCC(c3ccccc3)C2)cc1` (stereo unspecified), the IC50 was > 29.9 µM (inactive).

Regarding `O=C(CCN1CCC(O)(c2ccc(F)cc2)C1)c1ccc2c(c1)OCCO2` (stereo unspecified), the IC50 was > 29.9 µM (inactive).

On to `CC(CN1CCC(c2ccccc2)C1)C(=O)c1ccc2c(c1)OCCO2` (stereo unspecified), for which the IC50 was > 29.9 µM (inactive).

Consider `O=C(CCN1C[C@@H](C(=O)O)[C@H](c2cccc(F)c2)C1)NC1CC1`, for which the IC50 is > 29.9 µM (inactive).

In the case of `NC(=O)CCN1C[C@H](c2ccccc2)[C@@H]2[C@H]1C1CCN2CC1`, the IC50 is > 29.9 µM (inactive).

Broadly, the IC50 is the concentration that inhibits the measured activity by half.
